Measurements reported in patent publication US20130022620A1, “ASSAYS AND METHODS PERTAINING TO PRE-AMYLOID INTERMEDIATES” (priority 2011, published 2013).
Positions of bridges follow the written chain, without caps; N, C: chain ends. No end group written: not given here.

Key:
[1] = tested on: rat INS-1 β-cells; test: AlamarBlue cell viability assay of β-cells; format: cell-based; settings: for onset and duration of toxicity compared to wild type: side-by-side with kinetics, 20 uM for the Ser-20 mutants
Description: Transformed rat insulinoma-1 (INS-1) β-cells (which express RAGE) are a pancreatic beta cell line commonly used for studies of h-IAPP induced toxicity. INS-1 cells were grown in RPMI 1640 supplemented with 10% fetal bovine serum (FBS), 11 mM glucose, 10 mM Hepes, 2 mM L-glutamine, 1 mM sodium pyruvate, 50 μM β-mercaptoethanol, 100 U/ml penicillin, and […] streptomycin. Cells were maintained at 37° C./5% CO2.
Cyto-toxicity was measured by AlamarBlue assay. INS-1 β-cells were seeded at a density of 30,000 cells per well in 96-well plates and cultured for 24 hours prior to stimulation with IAPP. Human and rat IAPP were dissolved and incubated in 16 mM tris HCl (pH 7.4, 25° C.) prior to cell stimulation. AlamarBlue was diluted ten-fold in culture media and cells were incubated for 5 hours at 37° C. Fluorescence (excitation 530; emission 590 nm) was measured on a Beckman Coulter DTX880 fluorescent plate reader. Values calculated were relative to those of control cells treated with buffer only. All values represent means±SEM (n=3).
Changes in cell morphology were examined by light microscopy to provide a second method of evaluating cell viability. Transformed rat INS-1 beta cells were photographed immediately prior to assessment of toxicity by Alamar blue cell viability assays. Images were taken using an Olympus BX-61 light microscope.

[2] = Thioflavin-T kinetics and TEM of amyloid formation by IAPP peptides; format: physicochemical
Description: Thioflavin-T fluorescence was used to monitor the time course of h-IAPP amyloid formation in the presence and absence of sRAGE. To identify which form(s) of h-IAPP interact with RAGE, sRAGE was added to h-IAPP at various time points during the h-IAPP amyloid formation reaction. Aliquots of the reaction mixture were analyzed by adding 100 uL aliquots of the amyloid formation reaction to 96-well plates containing 8 uL of 60 uM thioflavin-T solution at various incubation times after initiation of the amyloid formation reaction. Fluorescence was measured using a Beckman Coulter DTX880 fluorescent plate reader (excitation: 445 nm and emission: 485 nm). Final solution conditions contained 16 mM tris HCl and […] thioflavin-T (pH 7.4). […] All values represent means±SEM (n=3).
Transient kinetic species of h-IAPP were characterized by TEM. TEM images confirm the presence or absence of amyloid which were indicated by thioflavin-T fluorescence. Aliquots (4 μl) were removed from the reaction mixtures monitored by thioflavin-T assays, placed on a carbon-coated 200-mesh copper grid and negatively stained with saturated uranyl acetate. The samples were imaged with a Philips CM12 transmission electron microscope at the New York University electron microscopy core facility. Final solution conditions contained 16 mM tris HCl (pH 7.4).

[3] = tested on: MCP-1 and IL-1β mRNA expression; test: qRT-PCR of MCP-1 and IL-1β mRNA in β-cells; format: cell-based, rat; settings: β-cells stimulated with peptide
Description: (§1) Assays for qRT-PCR were carried out in 6-well plates. Total cellular RNA was isolated from h-IAPP stimulated β-cells using Qiagen RNA isolation kit, and the quality of RNA samples was determined by measurement of 260:280 ratio. Only samples with a 260:280 ratio of 2.0 or higher were used for reverse transcription. RNA samples were also treated by RNAse-free DNAse to avoid genomic DNA contamination. One microgram of RNA from each sample was reverse-transcribed to cDNA using MCP-1 and IL-1β primers. Non-template negative controls were also performed to monitor non-specific reactions. RNA isolated from rat IAPP and non-h-IAPP treated beta cells were used as negative controls. Equal amounts of RNA were used in each qRT-PCR reaction, and 18S was used as the internal control for amplification at the same time. qRT-PCR reactions were carried out using an Applied Biosystems 7500 RealTime PCR machine. The relative mRNA contents were normalized using 18S and quantification was carried out using qRT-PCR Quantifier Software.

[4] = target: T1, sRAGE (Homo sapiens, UniProt Q15109); test: Tryptophan fluorescence quenching assay of sRAGE binding; settings: sRAGE added at different time points of the reaction, 1:1 molar ratio
T1 construct: the soluble extracellular domain of RAGE (sRAGE); made in house; host or cells: Sf9 insect cells (baculovirus)
T1 sequence (Q15109 23-342): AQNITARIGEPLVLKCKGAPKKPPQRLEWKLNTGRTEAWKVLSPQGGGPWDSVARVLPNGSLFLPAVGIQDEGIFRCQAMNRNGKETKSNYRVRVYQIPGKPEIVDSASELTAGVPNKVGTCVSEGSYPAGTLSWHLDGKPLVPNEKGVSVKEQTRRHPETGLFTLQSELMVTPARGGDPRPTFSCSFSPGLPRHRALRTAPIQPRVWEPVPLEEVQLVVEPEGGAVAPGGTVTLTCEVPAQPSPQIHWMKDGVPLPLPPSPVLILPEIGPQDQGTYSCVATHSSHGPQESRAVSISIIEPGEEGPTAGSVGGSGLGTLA
Source text: The quenching of tryptophan fluorescence indicates binding. Fluorescence measurements were made at right angle in a […] dual path length quartz cuvette, using a Photon Technology International fluorescent spectrometer (280 nm excitation and 350 nm emission). Background fluorescence from buffer and IAPP peptides were negligible. The fluorescence quantum yield reported for each time point is an average of 20 reads over 20 seconds (2.5 nm bandwidth and 1 second integration time). Final solution conditions contained 16 mM tris HCl (pH 7.4).

[5] = tested on: MCP-1 and IL-1β mRNA expression; test: qRT-PCR of MCP-1 and IL-1β mRNA in smooth muscle cells; format: cell-based, mouse; settings: peptide stimulation
Description: Mouse vascular SMCs were cultured from the aortas of 10-week-old male mice using a modification of the procedure of Tarvo and Barret. See Tarvo et al. Blood Vessels. 1980; 17:110-116. SMCs were cultured following an explant protocol in accordance with institutional guidelines. Cultures were composed of 95% SM-α-actin positivity based on immunostaining.
as §1

[6] = target: T1, sRAGE; test: Difference CD of IAPP peptides with sRAGE; format: binding; settings: end point of the reactions
Description: CD measurements of IAPP, sRAGE and IAPP/sRAGE reactions were taken at various incubation times. Far-UV CD experiments monitor the development of secondary structure of h-IAPP species and give insight into the conformational requirement for IAPP/RAGE-binding. All CD experiments were performed on an Applied Photophysics circular dichroism spectrophotometer by directly transferring 300 μL of peptide solution from kinetic assays into a 0.1 cm quartz cuvette a few minutes prior to data collection. The CD spectra for sRAGE and tris HCl buffer was subtracted from all RAGE/IAPP mixtures. The final far-UV CD data was collected over the range of 190 to 260 nm. Final solution conditions contained 16 mM tris HCl (pH 7.4).

[7] = target: T2, soluble RAGE (sRAGE), soluble extracellular domain of the receptor for advanced glycation endproducts (human, UniProt Q15109 23-342, glycosylated (heterogeneity in GlcN and GlcNAc glycosylation by MALDI-TOF)); test: tryptophan fluorescence quenching
T2 construct: The purification protocol gives two species, full length (36,254 Da) and C-truncated (34,710 Da); also called human sRAGE
T2 sequence (Q15109 23-342): as above
Source text: (E) Trp fluorescence quenching experiments.
Binding of ligands to this region should alter the environment of the tryptophans and lead to a change in their fluorescent quantum yield. Thus, the quenching of tryptophan fluorescence can be used to monitor binding.

[8] = target: T2, soluble RAGE (sRAGE), soluble …; test: tryptophan fluorescence quenching; sRAGE added at different time points of the aggregation reaction

## 3×L-IAPP: h-IAPP triple mutant in which leucines replaced F15, F23 and Y37 (KCNTATCATQRLANLLVHSSNNLGAILSSTNVGSNTL-NH2; disulfide 2-7; N-terminus assumed; SMILES CC[C@H](C)[C@H](NC(=O)[C@H](C)NC(=O)CNC(=O)[C@H](CC(C)C)NC(=O)[C@H](CC(N)=O)NC(=O)[C@H](CC(N)=O)NC(=O)[C@H](CO)NC(=O)[C@H](CO)NC(=O)[C@H](Cc1c[nH]cn1)NC(=O)[C@@H](NC(=O)[C@H](CC(C)C)NC(=O)[C@H](CC(C)C)NC(=O)[C@H](CC(N)=O)NC(=O)[C@H](C)NC(=O)[C@H](CC(C)C)NC(=O)[C@H](CCCNC(=N)N)NC(=O)[C@H](CCC(N)=O)NC(=O)[C@@H](NC(=O)[C@H](C)NC(=O)[C@@H]1CSSC[C@H](NC(=O)[C@@H](N)CCCCN)C(=O)N[C@@H](CC(N)=O)C(=O)N[C@@H]([C@@H](C)O)C(=O)N[C@@H](C)C(=O)N[C@@H]([C@@H](C)O)C(=O)N1)[C@@H](C)O)C(C)C)C(=O)N[C@@H](CC(C)C)C(=O)N[C@@H](CO)C(=O)N[C@@H](CO)C(=O)N[C@H](C(=O)N[C@@H](CC(N)=O)C(=O)N[C@H](C(=O)NCC(=O)N[C@@H](CO)C(=O)N[C@@H](CC(N)=O)C(=O)N[C@H](C(=O)N[C@@H](CC(C)C)C(N)=O)[C@@H](C)O)C(C)C)[C@@H](C)O; UniProt P10997 34-70, looked up, variant F15L F23L Y37L)
[1]
  onset and duration of toxicity compared to wild type: longer duration of toxicity than observed with wild type
[2]; triple mutant, leucines at positions 15, 23 and 37
  amyloid formation, slower than wild type: 6 fold

## S20K-IAPP: h-IAPP with Ser-20 substituted by lysine (KCNTATCATQRLANFLVHSKNNFGAILSSTNVGSNTY-NH2; disulfide 2-7; N-terminus assumed; SMILES CC[C@H](C)[C@H](NC(=O)[C@H](C)NC(=O)CNC(=O)[C@H](Cc1ccccc1)NC(=O)[C@H](CC(N)=O)NC(=O)[C@H](CC(N)=O)NC(=O)[C@H](CCCCN)NC(=O)[C@H](CO)NC(=O)[C@H](Cc1c[nH]cn1)NC(=O)[C@@H](NC(=O)[C@H](CC(C)C)NC(=O)[C@H](Cc1ccccc1)NC(=O)[C@H](CC(N)=O)NC(=O)[C@H](C)NC(=O)[C@H](CC(C)C)NC(=O)[C@H](CCCNC(=N)N)NC(=O)[C@H](CCC(N)=O)NC(=O)[C@@H](NC(=O)[C@H](C)NC(=O)[C@@H]1CSSC[C@H](NC(=O)[C@@H](N)CCCCN)C(=O)N[C@@H](CC(N)=O)C(=O)N[C@@H]([C@@H](C)O)C(=O)N[C@@H](C)C(=O)N[C@@H]([C@@H](C)O)C(=O)N1)[C@@H](C)O)C(C)C)C(=O)N[C@@H](CC(C)C)C(=O)N[C@@H](CO)C(=O)N[C@@H](CO)C(=O)N[C@H](C(=O)N[C@@H](CC(N)=O)C(=O)N[C@H](C(=O)NCC(=O)N[C@@H](CO)C(=O)N[C@@H](CC(N)=O)C(=O)N[C@H](C(=O)N[C@@H](Cc1ccc(O)cc1)C(N)=O)[C@@H](C)O)C(C)C)[C@@H](C)O; UniProt P10997 34-70, looked up, variant S20K)
[1]
  onset and duration of toxicity compared to wild type: shifts the onset of toxicity to later time points and increases its duration
[2]; 20 uM, pH 7.4 25° C.
  rate of aggregation compared to wild type: slower aggregation rate

## rat IAPP: non-amyloidogenic, non-toxic rat IAPP used as negative control
[1]; peptide incubated in buffer at room temperature for various times, then applied to INS-1 β-cells
  cell toxicity (AlamarBlue cell viability, light microscopy): No toxicity was observed at any time point
[2]; peptide by itself
  amyloid formation (thioflavin-T): does not form amyloid at any time point
[3]
  MCP-1 and IL-1β mRNA expression: does not induce up-regulation
[4]
  binding to sRAGE (tryptophan fluorescence quenching): No binding
[5]
  MCP-1 and IL-1β mRNA expression in smooth muscle cells: rat IAPP does not
[6]
  interaction with sRAGE (difference CD): does not interact

B1: rat IAPP (peptide, UniProt P12969 38-74, looked up)
peptide: KCNTATCATQRLANFLVRSSNNLGPVLPPTNVGSNTY-NH2
modifications: disulfide 2-7
notes: mature; also called non-toxic rat IAPP; non-amyloidogenic rat IAPP
[7]
  binding result: no binding (tested: 20 µM rat IAPP, 1:1 molar ratio)

B2: I26P-IAPP (I26P point mutant of human IAPP) (peptide)
peptide: KCNTATCATQRLANFLVHSSNNFGAPLSSTNVGSNTY-NH2
modifications: disulfide 2-7; N-terminus assumed
SMILES: CC(C)C[C@H](NC(=O)[C@H](CCCNC(=N)N)NC(=O)[C@H](CCC(N)=O)NC(=O)[C@@H](NC(=O)[C@H](C)NC(=O)[C@@H]1CSSC[C@H](NC(=O)[C@@H](N)CCCCN)C(=O)N[C@@H](CC(N)=O)C(=O)N[C@@H]([C@@H](C)O)C(=O)N[C@@H](C)C(=O)N[C@@H]([C@@H](C)O)C(=O)N1)[C@@H](C)O)C(=O)N[C@@H](C)C(=O)N[C@@H](CC(N)=O)C(=O)N[C@@H](Cc1ccccc1)C(=O)N[C@@H](CC(C)C)C(=O)N[C@H](C(=O)N[C@@H](Cc1c[nH]cn1)C(=O)N[C@@H](CO)C(=O)N[C@@H](CO)C(=O)N[C@@H](CC(N)=O)C(=O)N[C@@H](CC(N)=O)C(=O)N[C@@H](Cc1ccccc1)C(=O)NCC(=O)N[C@@H](C)C(=O)N1CCC[C@H]1C(=O)N[C@@H](CC(C)C)C(=O)N[C@@H](CO)C(=O)N[C@@H](CO)C(=O)N[C@H](C(=O)N[C@@H](CC(N)=O)C(=O)N[C@H](C(=O)NCC(=O)N[C@@H](CO)C(=O)N[C@@H](CC(N)=O)C(=O)N[C@H](C(=O)N[C@@H](Cc1ccc(O)cc1)C(N)=O)[C@@H](C)O)C(C)C)[C@@H](C)O)C(C)C
notes: also called nontoxic, aggregation-prone I26P-IAPP variant of h-IAPP
[8]
  binding result: no binding
